Patent publication US5395610A, “Agents for potentiating the effects of antitumor agents and combating multiple drug resistance” (Burroughs-Wellcome Co., priority 1989, dated 1995)

Legend:
[1] = in vitro; format: cell-based, Chinese hamster; settings: hamster, cho auxb1 cells
[2] = system: Chinese hamster ovary (CHO) cells, drug resistant C5S32; test: In vitro cytotoxicity / potentiation of Actinomycin D in Chinese hamster ovary cells, drug resistant C5S32 (MTT); format: cell-based; settings: 96 h, fraction of Act D alone (1.00)
[3] = as above; format: cell-based; settings: hamster, cho c5s32 cells, fraction of untreated cultures (1.00), read-out: Cytotoxicity, normalized absorbance, Drug Resistant C5S32, 0 (no Act D); for viability at 96 h, 1 µM: 1 μM potentiating agent alone; for viability at 96 h, 10 µM: 10 μM potentiating agent alone
[4] = In vitro cytotoxicity / potentiation of Actinomycin D in human KB epidermoid carcinoma cells, drug resistant KB V-1 (MTT); format: cell-based; settings: human, kb v-1 cells, fraction of untreated cultures, read-out: Cytotoxicity, normalized absorbance, Drug Resistant KB V-1, 0 (no Act D); for viability at 96 h, 1 µM: 1 μM potentiating agent alone; for viability at 96 h, 10 µM: 10 μM potentiating agent alone
[5] = system: human KB epidermoid carcinoma cells, drug resistant KB V-1; test: as above; format: cell-based; settings: 96 h, fraction of Act D alone
[6] = system: human KB epidermoid carcinoma cells, wildtype KB 3-1; test: In vitro cytotoxicity / potentiation of Actinomycin D in human KB epidermoid carcinoma cells, wildtype KB 3-1 (MTT); format: cell-based; settings: 96 h, fraction of Act D alone
[7] = as above; format: cell-based; settings: human, kb 3-1 cells, fraction of untreated cultures, read-out: Cytotoxicity, normalized absorbance, Wildtype KB 3-1, 0 (no Act D); for viability at 96 h, 1 µM: 1 μM potentiating agent alone; for viability at 96 h, 10 µM: 10 μM potentiating agent alone
[8] = 1 μM potentiating agent + Act D 0.5 μM
[9] = 10 μM potentiating agent + Act D 0.5 μM
[10] = 1 μM potentiating agent + Act D 20 nM
[11] = 10 μM potentiating agent + Act D 20 nM
[12] = 1 μM potentiating agent + Act D 0.1 nM
[13] = 10 μM potentiating agent + Act D 0.1 nM

Row | Compound | viability at 96 h, 1 µM [1] [%] | viability at 96 h, 10 µM [1] [%] | Synergism with Actinomycin D, normalized absorbance, Drug Resistant C5S32, +ACT D [2, 8] | Synergism with Actinomycin D, normalized absorbance, Drug Resistant C5S32, +ACT D [2, 9] | viability at 96 h, 1 µM [3] [%] | viability at 96 h, 10 µM [3] [%] | viability at 96 h, 1 µM [4] [%] | viability at 96 h, 10 µM [4] [%] | Synergism with Actinomycin D, normalized absorbance, Drug Resistant KB V-1, +ACT D [5, 10] | Synergism with Actinomycin D, normalized absorbance, Drug Resistant KB V-1, +ACT D [5, 11] | Synergism with Actinomycin D, normalized absorbance, Wildtype KB 3-1, +ACT D [6, 12] | Synergism with Actinomycin D, normalized absorbance, Wildtype KB 3-1, +ACT D [6, 13] | viability at 96 h, 1 µM [7] [%] | viability at 96 h, 10 µM [7] [%]
1 | CCN(CC)CC/C=C1/c2ccccc2COc2ccc(Br)cc21 [(I), (Z)-3-(2-Bromo-6,11-dihydrodibenz [b,e]oxepin-11-ylidene)-N,N-diethylpropylamine] | 90 | 92 | 0.77 | 0.36 | 95 | 100 | 98 | 34 | 0.95 | 0.04 | 0.99 | 0.40 | 99 | 30
2 | Brc1cccc2c1OCc1ccccc1C2=CCN1CCCC1 [(J), 1-[2-(4-Bromo-6,11-dihydrodibenz[b,e]oxepin-11-ylidine)-ethyl]pyrrolidine 60% Z, 40% E] | 100 | 100 | 0.66 | 0.12 | 80 | 29 | 88 | 45 | 0.74 | 0.01 | 0.85 | 0.77 | 89 | 80
3 | Brc1ccc2c(c1)/C(=C/CCN1CCCC1)c1ccccc1CO2 [(K), (E)-1-[3-(2-Bromo-6,11-dihydrodibenz [b,e]-oxepin-11-ylidene)propyl]pyrrolidine] | 83 | 87 | 0.79 | 0.28 | 100 | 100 | 86 | 8 | 0.88 | 0.13 | 0.77 | 0.03 | 85 | 100
4 | CN(C)CCC=C1c2ccc(Br)cc2COc2ccccc21 [(L), (E)/(Z) -3-(8-Bromo-6,11-dihydrodibenz [b,e]-oxepine-11-ylidene)-N,N-dimethylpropylamine (80% Z:20% E)] | 83 | 81 | 0.85 | 0.42 | 92 | 99 | 98 | 51 | 1.00 | 0.23 | – | 0.94 | 100 | 97
5 | Brc1ccc2c(c1)/C(=C/CCN1CCCC1)c1cc(Br)ccc1OC2 [(O), (Z)-1-[3-(2,9-dibromo-6,11-dihydrodibenz [b,e]-oxepin-11-ylidene)propyl]pyrrolidine] | 100 | 93 | 0.58 | 0.38 | 48 | 35 | 74 | 7 | 0.78 | 0.06 | 0.81 | 0.73 | 79 | 64
